Results reported in patent US9409952B2, “Peptide-compound cyclization method” (Chugai Seiyaku Kabushiki Kaisha, priority 2011, dated 2016).
Read-outs that look alike come from different tables or passages of the source. Starred links: 1 amine or outer side, 2 acyl side, 3 side chain; linkers in the order of their positions; H or OH if unused. Positions of bridges follow the written chain, without caps; N, C: chain ends. Non-standard residues stand in square brackets, D forms with d. Residues, ends and D or L forms follow the SMILES beside them. *: point of attachment. Phe(3-(CH2)4CO) = O=C([C@H](Cc1cccc(CCCCC(=O)[*:3])c1)N[*:1])[*:2]; Phe(4-CF3) = N[C@@H](Cc1ccc(C(F)(F)F)cc1)C(=O)O; NMePhe(3-Cl) = CN[C@@H](Cc1cccc(Cl)c1)C(=O)O; hhPhe = N[C@@H](CCCc1ccccc1)C(=O)O; NMeF = CN[C@@H](Cc1ccccc1)C(=O)O; NMeGABA = CN(CCCC(=O)[*:2])[*:1]; NMeI = CC[C@H](C)[C@H](NC)C(=O)O; NMeβAla = CN(CCC(=O)[*:2])[*:1]; NMeL = CN[C@@H](CC(C)C)C(=O)O; NMeV = CN[C@H](C(=O)O)C(C)C; NMeA = CN[C@@H](C)C(=O)O; Piperidide = C1CCN(*)CC1; dNMeA = CN[C@H](C)C(=O)O; β3hA = C[C@H](N)CC(=O)O; Sar = CNCC(=O)O; tBu = CC(C)(C)*

Assays:
[1] = Metabolic stability in human hepatic microsome; type: in vitro ADME; conditions: microsomes
[2] = PAMPA (parallel artificial membrane permeability assay); type: in vitro ADME; conditions: for Papp at 18 hours, 50 µM: PAMPA
In short: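 Artificial membrane was 10% (w/v) egg lecithin plus 0.5% (w/v) cholesterol in dodecane on a PVDF filter. A 10 mM DMSO stock was added at 0.5% (v/v) to donor buffer (50 mM MOPSO, pH 6.5, 5.0% glycocholic acid). After 18 h at 37 °C, LC/MS or LC/UV gave donor and acceptor levels for Pe.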

[3] = pH 7.4, human hepatic microsome, NADPH(+), read-out: CL NADPH(+)
[4] = membrane permeation rate (Pe), 50 mM MOPSO buffer pH 6.5 with 5.0% glycocholic acid, 37° C., 18 hours, read-out: iPAMPA Pe

Row | SMILES | microsomal CLint at 1 uM [1, 3] | Papp at 18 hours, 50 µM [2, 4] | microsomal CLint at 1 uM ([1]; human, pH 7.4, CL NADPH(+)) | Papp at 18 hours, 50 µM ([2]; pH 6.5) | iPAMPA Pe ([2]; membrane permeation rate (Pe), 50 mM MOPSO buffer pH 6.5 with 5.0% glycocholic acid, 37° C., 18 hours)
1 | CC(C)C[C@H]1C(=O)N(C)CC(=O)N(C)[C@@H](Cc2ccccc2)C(=O)N[C@@H](COC(C)(C)C)C(=O)N[C@H](C(=O)N2CCCCC2)CC(=O)N(C)CCCC(=O)N[C@@H]([C@@H](C)O)C(=O)N1C [DP-534] ([NMeGABA]T[NMeL][Sar][NMeF]S(tBu)D-Piperidide; lactam N-7) | 55 µL/min/mg | 6.3 ×10⁻⁶ cm/s |  |  | 
2 | CC(C)C[C@@H]1NC(=O)[C@H](CC(C)C)N(C)C(=O)[C@H](C)NC(=O)[C@H](C(C)C)N(C)C(=O)[C@H](C)N(C)C(=O)CN(C)C(=O)[C@H]([C@@H](C)O)NC(=O)[C@H](Cc2ccccc2)NC(=O)[C@H](CC(C)C)N(C)C(=O)[C@H](C)N(C)C(=O)C[C@@H](C(=O)N2CCCCC2)NC1=O [DP-237] ([NMeA][NMeL]FT[Sar][NMeA][NMeV]A[NMeL]LD-Piperidide; lactam N-11) | 37 µL/min/mg | 12 ×10⁻⁶ cm/s |  |  | 
3 | CC(C)C[C@H]1C(=O)N(C)[C@@H](Cc2ccccc2)C(=O)N(C)[C@@H](CC(C)C)C(=O)N[C@H](C(=O)N2CCCCC2)CC(=O)N[C@H](C)C(=O)N[C@@H](C)C(=O)N[C@@H]([C@@H](C)O)C(=O)N(C)[C@@H](C)C(=O)N[C@@H](Cc2ccccc2)C(=O)N1C [DP-263] ([dA]AT[NMeA]F[NMeL][NMeF][NMeL]D-Piperidide; lactam N-9) | 136 µL/min/mg | 34 ×10⁻⁶ cm/s |  |  | 
4 | CC[C@H](C)[C@H]1C(=O)N(C)[C@@H](CC(C)C)C(=O)N[C@H](C(=O)N2CCCCC2)CC(=O)N(C)[C@@H](C)C(=O)N(C)[C@@H](CC(C)C)C(=O)N[C@@H](CC(C)C)C(=O)N(C)[C@@H](Cc2ccccc2)C(=O)N[C@@H](COC(C)(C)C)C(=O)N(C)[C@@H](Cc2ccccc2)C(=O)N[C@@H]([C@@H](C)O)C(=O)N(C)[C@@H](C)C(=O)N1C [DP-100] ([NMeA][NMeL]L[NMeF]S(tBu)[NMeF]T[NMeA][NMeI][NMeL]D-Piperidide; lactam N-11) |  |  | 80 µL/min/mg | 1.7 ×10⁻⁶ cm/s | 
5 | CC(C)C[C@H]1C(=O)N[C@@H]([C@@H](C)O)C(=O)N(C)[C@@H](C)C(=O)N(C)[C@@H](CC(C)C)C(=O)N[C@H](C(=O)N2CCCCC2)CC(=O)N(C)CCCC(=O)N[C@@H](C)C(=O)N(C)[C@@H](Cc2ccccc2)C(=O)N[C@@H](Cc2ccccc2)C(=O)N1C [DP-128] ([NMeGABA]A[NMeF]F[NMeL]T[NMeA][NMeL]D-Piperidide; lactam N-9) | 276 µL/min/mg | 23 ×10⁻⁶ cm/s |  |  | 
6 | CC[C@H](C)[C@@H]1NC(=O)[C@H]([C@@H](C)O)NC(=O)[C@H](Cc2ccccc2)NC(=O)[C@H](CC(C)C)NC(=O)[C@@H](C)NC(=O)C[C@@H](C(=O)N2CCCCC2)NC(=O)[C@H](CC(C)C)NC(=O)[C@H](CC(C)C)N(C)C(=O)[C@H](CC(C)C)NC(=O)CNC(=O)[C@H](Cc2ccccc2)NC1=O [DP-321] ([dA]LFTIFGL[NMeL]LD-Piperidide; lactam N-11) | 19 µL/min/mg | 6.2 ×10⁻⁶ cm/s |  |  | 
7 | CC(C)C[C@H]1C(=O)N(C)[C@@H](C)C(=O)N(C)[C@@H](C)C(=O)N(C)[C@@H](Cc2ccccc2)C(=O)N[C@@H]([C@@H](C)O)C(=O)N(C)[C@@H](Cc2ccccc2)C(=O)N(C)[C@@H](CC(C)C)C(=O)N2CCC[C@H]2C(=O)N[C@@H](C)CC(=O)N[C@@H](C)C(=O)NCC(=O)N1C [DP-766] (cyclo(AG[NMeL][NMeA][NMeA][NMeF]T[NMeF][NMeL]P[β3hA])) |  |  | 54 µL/min/mg | 13 ×10⁻⁶ cm/s | 
8 | CC[C@H](C)[C@@H]1NC(=O)CCCCc2cccc(c2)C[C@@H](C(=O)N2CCCCC2)NC(=O)[C@H](C)N(C)C(=O)[C@H](CC(C)C)N(C)C(=O)CN(C)C(=O)[C@H]([C@@H](C)O)NC(=O)[C@H](Cc2ccccc2)N(C)C(=O)[C@H](CC(C)C)N(C)C(=O)[C@H](C)NC(=O)[C@H](C(C)C)N(C)C(=O)[C@H](Cc2ccccc2)N(C)C1=O [DP-876] (I[NMeF][NMeV]A[NMeL][NMeF]T[Sar][NMeL][NMeA][Phe(3-(CH2)4CO)]-Piperidide; lactam N-11) | 103 µL/min/mg | 55 ×10⁻⁶ cm/s |  |  | 
9 | CC(C)C[C@H]1C(=O)N(C)[C@@H](CC(C)C)C(=O)N[C@@H]([C@@H](C)O)C(=O)N(C)[C@@H](Cc2cccc(Cl)c2)C(=O)NCC(=O)N(C)[C@@H](C(C)C)C(=O)N[C@@H](Cc2ccc(C(F)(F)F)cc2)C(=O)N[C@@H](C)CC(=O)N(C)CCC(=O)N[C@@H](COC(C)(C)C)C(=O)N1C [DP-809] (cyclo(G[NMeV][Phe(4-CF3)][β3hA][NMeβAla]S(tBu)[NMeL][NMeL]T[NMePhe(3-Cl)])) | 201 µL/min/mg |  |  |  | 7.0E−05
10 | CC(C)C[C@@H]1NC(=O)[C@H](Cc2ccccc2)N(C)C(=O)[C@H](CC(C)C)N(C)C(=O)[C@@H](C)N(C)C(=O)C[C@H](C)NC(=O)[C@H](CC(C)C)N(C)C(=O)[C@H](Cc2ccccc2)N(C)C(=O)[C@H]([C@@H](C)O)NC(=O)[C@H](Cc2ccccc2)N(C)C1=O [DP-793] (cyclo(L[NMeF]T[NMeF][NMeL][β3hA][dNMeA][NMeL][NMeF])) | 218 µL/min/mg | 53 ×10⁻⁶ cm/s |  |  | 
11 | CC[C@H](C)[C@H]1C(=O)N[C@@H](Cc2ccccc2)C(=O)N[C@@H](Cc2ccccc2)C(=O)N2CCC[C@H]2C(=O)N[C@@H]([C@@H](C)O)C(=O)N(C)[C@@H](CC(C)C)C(=O)N[C@H](C(=O)N2CCCCC2)CC(=O)N[C@@H](C)C(=O)N[C@@H](C)C(=O)N(C)[C@@H](CC(C)C)C(=O)N[C@@H](CC(C)C)C(=O)N1C [DP-29] (AA[NMeL]L[NMeI]FFPT[NMeL]D-Piperidide; lactam N-11) |  |  | 158 µL/min/mg | 31 ×10⁻⁶ cm/s | 
12 | CC[C@H](C)[C@H]1C(=O)N[C@@H](COC(C)(C)C)C(=O)N(C)[C@@H](Cc2ccccc2)C(=O)N(C)[C@@H](C(C)C)C(=O)N[C@@H](C)CC(=O)N(C)[C@@H](C)C(=O)N(C)[C@@H](Cc2ccccc2)C(=O)N[C@@H](CC(C)C)C(=O)N(C)[C@@H](CC(C)C)C(=O)N[C@@H]([C@@H](C)O)C(=O)N(C)CC(=O)N1C [DP-771] (cyclo(L[NMeL]T[Sar][NMeI]S(tBu)[NMeF][NMeV][β3hA][NMeA][NMeF])) |  |  | 228 µL/min/mg | 47 ×10⁻⁶ cm/s | 
13 | CC(C)C[C@H]1C(=O)N[C@@H](COC(C)(C)C)C(=O)N[C@H](C(=O)N2CCCCC2)CC(=O)N[C@@H](C)C(=O)N(C)[C@@H](Cc2ccccc2)C(=O)N(C)CC(=O)N(C)[C@@H](Cc2ccccc2)C(=O)N[C@@H]([C@@H](C)O)C(=O)N1C [DP-711] (A[NMeF][Sar][NMeF]T[NMeL]S(tBu)D-Piperidide; lactam N-8) | 217 µL/min/mg | 29 ×10⁻⁶ cm/s |  |  | 
14 | CC(C)C[C@H]1C(=O)N[C@H](C(=O)N(C)[C@@H](Cc2ccccc2)C(=O)N(C)[C@@H](Cc2ccccc2)C(=O)N[C@@H](C)C(=O)N2CCCCC2)CC(=O)N[C@H](C)C(=O)N(C)[C@@H](C)C(=O)N(C)[C@@H](Cc2ccccc2)C(=O)N(C)[C@@H](CC(C)C)C(=O)N[C@@H]([C@@H](C)O)C(=O)N(C)[C@@H](C)C(=O)N(C)[C@@H](CC(C)C)C(=O)N[C@@H](C(C)C)C(=O)N1C [DP-204] ([dA][NMeA][NMeF][NMeL]T[NMeA][NMeL]V[NMeL]D[NMeF][NMeF]A-Piperidide; lactam N-10) | 48 µL/min/mg | 22 ×10⁻⁶ cm/s |  |  | 
15 | CC[C@H](C)[C@@H]1NC(=O)[C@H](Cc2ccccc2)N(C)C(=O)CN(C)C(=O)[C@H]([C@@H](C)O)NC(=O)[C@H](CC(C)C)NC(=O)[C@H](CC(C)C)N(C)C(=O)[C@H](C)N(C)C(=O)CCCN(C)C(=O)C[C@@H](C(=O)N2CCCCC2)NC(=O)[C@H](Cc2ccccc2)N(C)C(=O)[C@H](C(C)C)N(C)C1=O [DP-477] ([NMeGABA][NMeA][NMeL]LT[Sar][NMeF]I[NMeV][NMeF]D-Piperidide; lactam N-11) | 30 µL/min/mg | 29 ×10⁻⁶ cm/s |  |  | 
16 | CC[C@H](C)[C@@H]1NC(=O)[C@H](C(C)C)N(C)C(=O)[C@H](CC(C)C)N(C)C(=O)[C@H](Cc2ccccc2)NC(=O)[C@@H](C)N(C)C(=O)C[C@@H](C(=O)N(C)[C@@H](Cc2ccccc2)C(=O)N(C)[C@@H](Cc2ccccc2)C(=O)N[C@@H](C)C(=O)N2CCCCC2)NC(=O)[C@H](C)N(C)C(=O)[C@H]([C@@H](C)O)NC(=O)[C@H](CC(C)C)N(C)C(=O)CN(C)C1=O [DP-454] ([dNMeA]F[NMeL][NMeV]I[Sar][NMeL]T[NMeA]D[NMeF][NMeF]A-Piperidide; lactam N-10) | 50 µL/min/mg | 14 ×10⁻⁶ cm/s |  |  | 
17 | CC(C)C[C@H]1C(=O)NCC(=O)N(C)[C@@H](C(C)C)C(=O)N[C@@H]([C@@H](C)O)C(=O)N[C@@H](Cc2ccccc2)C(=O)N[C@H](C(=O)N(C)[C@@H](Cc2ccccc2)C(=O)N(C)[C@@H](Cc2ccccc2)C(=O)N[C@@H](C)C(=O)N2CCCCC2)CC(=O)N(C)CCC(=O)N(C)[C@@H](C(C)C)C(=O)N[C@@H](C(C)C)C(=O)N(C)[C@@H](Cc2ccccc2)C(=O)N1C [DP-390] ([NMeβAla][NMeV]V[NMeF][NMeL]G[NMeV]TFD[NMeF][NMeF]A-Piperidide; lactam N-10) | 52 µL/min/mg | 3.5 ×10⁻⁶ cm/s |  |  | 
18 | CC(C)C[C@@H]1NC(=O)[C@@H]2CCCN2C(=O)[C@H](Cc2ccccc2)N(C)C(=O)[C@H](C)N(C)C(=O)[C@H]([C@@H](C)O)NC(=O)[C@@H](C(C)C)NC(=O)C[C@@H](C(=O)N2CCCCC2)NC(=O)[C@H](CC(C)C)N(C)C(=O)[C@H](C)N(C)C(=O)[C@H](CCCc2ccccc2)NC(=O)[C@H](C(C)C)N(C)C1=O [DP-733] ([dV]T[NMeA][NMeF]PL[NMeV][hhPhe][NMeA][NMeL]D-Piperidide; lactam N-11) | 97 µL/min/mg | 26 ×10⁻⁶ cm/s |  |  | 
